Source: the OligoGym collection
Oligonucleotides are given in HELM: sugar(base)linkage, 5' to 3'; d 2'-deoxyribose, r ribose, m 2'-O-methylribose, p phosphate. ss, as = sense and antisense strand

What follows are substances tested against UBE2D3 (assay: reporter assay of Huesken 2005). Conditions: siRNA.
Also: test concentration or dose not given here.

Substance	normalised inhibition (eCFP-eYFP dual reporter) [%]
RNA1{r(C)p.r(A)p.r(G)p.r(C)p.r(A)p.r(U)p.r(U)p.r(U)p.r(G)p.r(U)p.r(C)p.r(U)p.r(C)p.r(G)p.r(A)p.r(U)p.r(A)p.r(U)p.r(U)p.d(T)p.d(T)}|RNA2{r(A)p.r(A)p.r(U)p.r(A)p.r(U)p.r(C)p.r(G)p.r(A)p.r(G)p.r(A)p.r(C)p.r(A)p.r(A)p.r(A)p.r(U)p.r(G)p.r(C)p.r(U)p.r(G)p.d(C)p.d(C)}$$$RNA1{StrandType:ss}|RNA2{StrandType:as}$	95.2
RNA1{r(C)p.r(A)p.r(G)p.r(U)p.r(A)p.r(A)p.r(U)p.r(G)p.r(G)p.r(C)p.r(A)p.r(G)p.r(C)p.r(A)p.r(U)p.r(U)p.r(U)p.r(G)p.r(U)p.d(T)p.d(T)}|RNA2{r(A)p.r(C)p.r(A)p.r(A)p.r(A)p.r(U)p.r(G)p.r(C)p.r(U)p.r(G)p.r(C)p.r(C)p.r(A)p.r(U)p.r(U)p.r(A)p.r(C)p.r(U)p.r(G)p.d(T)p.d(T)}$$$RNA1{StrandType:ss}|RNA2{StrandType:as}$	97.4
RNA1{r(C)p.r(A)p.r(U)p.r(U)p.r(G)p.r(G)p.r(C)p.r(A)p.r(A)p.r(G)p.r(C)p.r(C)p.r(A)p.r(C)p.r(A)p.r(A)p.r(U)p.r(U)p.r(A)p.d(T)p.d(T)}|RNA2{r(U)p.r(A)p.r(A)p.r(U)p.r(U)p.r(G)p.r(U)p.r(G)p.r(G)p.r(C)p.r(U)p.r(U)p.r(G)p.r(C)p.r(C)p.r(A)p.r(A)p.r(U)p.r(G)p.d(A)p.d(A)}$$$RNA1{StrandType:ss}|RNA2{StrandType:as}$	100
RNA1{r(C)p.r(A)p.r(U)p.r(U)p.r(U)p.r(A)p.r(C)p.r(A)p.r(A)p.r(C)p.r(A)p.r(A)p.r(G)p.r(A)p.r(A)p.r(U)p.r(U)p.r(U)p.r(A)p.d(T)p.d(T)}|RNA2{r(U)p.r(A)p.r(A)p.r(A)p.r(U)p.r(U)p.r(C)p.r(U)p.r(U)p.r(G)p.r(U)p.r(U)p.r(G)p.r(U)p.r(A)p.r(A)p.r(A)p.r(U)p.r(G)p.d(C)p.d(A)}$$$RNA1{StrandType:ss}|RNA2{StrandType:as}$	70
RNA1{r(C)p.r(C)p.r(A)p.r(G)p.r(A)p.r(G)p.r(A)p.r(U)p.r(U)p.r(G)p.r(C)p.r(A)p.r(C)p.r(G)p.r(G)p.r(A)p.r(U)p.r(C)p.r(U)p.d(T)p.d(T)}|RNA2{r(A)p.r(G)p.r(A)p.r(U)p.r(C)p.r(C)p.r(G)p.r(U)p.r(G)p.r(C)p.r(A)p.r(A)p.r(U)p.r(C)p.r(U)p.r(C)p.r(U)p.r(G)p.r(G)p.d(C)p.d(A)}$$$RNA1{StrandType:ss}|RNA2{StrandType:as}$	82
RNA1{r(C)p.r(C)p.r(A)p.r(U)p.r(U)p.r(U)p.r(G)p.r(U)p.r(U)p.r(C)p.r(A)p.r(C)p.r(U)p.r(G)p.r(C)p.r(U)p.r(A)p.r(U)p.r(G)p.d(T)p.d(T)}|RNA2{r(C)p.r(A)p.r(U)p.r(A)p.r(G)p.r(C)p.r(A)p.r(G)p.r(U)p.r(G)p.r(A)p.r(A)p.r(C)p.r(A)p.r(A)p.r(A)p.r(U)p.r(G)p.r(G)p.d(A)p.d(T)}$$$RNA1{StrandType:ss}|RNA2{StrandType:as}$	94.5
RNA1{r(C)p.r(C)p.r(U)p.r(A)p.r(C)p.r(A)p.r(G)p.r(A)p.r(C)p.r(U)p.r(A)p.r(C)p.r(C)p.r(C)p.r(C)p.r(U)p.r(U)p.r(C)p.r(A)p.d(T)p.d(T)}|RNA2{r(U)p.r(G)p.r(A)p.r(A)p.r(G)p.r(G)p.r(G)p.r(G)p.r(U)p.r(A)p.r(G)p.r(U)p.r(C)p.r(U)p.r(G)p.r(U)p.r(A)p.r(G)p.r(G)p.d(A)p.d(A)}$$$RNA1{StrandType:ss}|RNA2{StrandType:as}$	99.9
RNA1{r(C)p.r(C)p.r(U)p.r(A)p.r(G)p.r(U)p.r(G)p.r(C)p.r(C)p.r(A)p.r(G)p.r(A)p.r(G)p.r(A)p.r(U)p.r(U)p.r(G)p.r(C)p.r(A)p.d(T)p.d(T)}|RNA2{r(U)p.r(G)p.r(C)p.r(A)p.r(A)p.r(U)p.r(C)p.r(U)p.r(C)p.r(U)p.r(G)p.r(G)p.r(C)p.r(A)p.r(C)p.r(U)p.r(A)p.r(G)p.r(G)p.d(G)p.d(G)}$$$RNA1{StrandType:ss}|RNA2{StrandType:as}$	86.2
RNA1{r(C)p.r(C)p.r(U)p.r(U)p.r(C)p.r(A)p.r(A)p.r(A)p.r(C)p.r(C)p.r(A)p.r(C)p.r(C)p.r(U)p.r(A)p.r(A)p.r(G)p.r(G)p.r(U)p.d(T)p.d(T)}|RNA2{r(A)p.r(C)p.r(C)p.r(U)p.r(U)p.r(A)p.r(G)p.r(G)p.r(U)p.r(G)p.r(G)p.r(U)p.r(U)p.r(U)p.r(G)p.r(A)p.r(A)p.r(G)p.r(G)p.d(G)p.d(G)}$$$RNA1{StrandType:ss}|RNA2{StrandType:as}$	94.5
RNA1{r(C)p.r(U)p.r(A)p.r(A)p.r(G)p.r(G)p.r(U)p.r(U)p.r(G)p.r(C)p.r(A)p.r(U)p.r(U)p.r(U)p.r(A)p.r(C)p.r(A)p.r(A)p.r(C)p.d(T)p.d(T)}|RNA2{r(G)p.r(U)p.r(U)p.r(G)p.r(U)p.r(A)p.r(A)p.r(A)p.r(U)p.r(G)p.r(C)p.r(A)p.r(A)p.r(C)p.r(C)p.r(U)p.r(U)p.r(A)p.r(G)p.d(G)p.d(T)}$$$RNA1{StrandType:ss}|RNA2{StrandType:as}$	80.9
RNA1{r(C)p.r(U)p.r(A)p.r(C)p.r(A)p.r(G)p.r(A)p.r(C)p.r(U)p.r(A)p.r(C)p.r(C)p.r(C)p.r(C)p.r(U)p.r(U)p.r(C)p.r(A)p.r(A)p.d(T)p.d(T)}|RNA2{r(U)p.r(U)p.r(G)p.r(A)p.r(A)p.r(G)p.r(G)p.r(G)p.r(G)p.r(U)p.r(A)p.r(G)p.r(U)p.r(C)p.r(U)p.r(G)p.r(U)p.r(A)p.r(G)p.d(G)p.d(A)}$$$RNA1{StrandType:ss}|RNA2{StrandType:as}$	94.9
RNA1{r(C)p.r(U)p.r(A)p.r(U)p.r(G)p.r(U)p.r(G)p.r(A)p.r(U)p.r(C)p.r(C)p.r(A)p.r(A)p.r(A)p.r(C)p.r(C)p.r(C)p.r(A)p.r(G)p.d(T)p.d(T)}|RNA2{r(C)p.r(U)p.r(G)p.r(G)p.r(G)p.r(U)p.r(U)p.r(U)p.r(G)p.r(G)p.r(A)p.r(U)p.r(C)p.r(A)p.r(C)p.r(A)p.r(U)p.r(A)p.r(G)p.d(C)p.d(A)}$$$RNA1{StrandType:ss}|RNA2{StrandType:as}$	95.8
RNA1{r(C)p.r(U)p.r(G)p.r(C)p.r(U)p.r(U)p.r(U)p.r(A)p.r(A)p.r(C)p.r(A)p.r(A)p.r(U)p.r(U)p.r(U)p.r(C)p.r(U)p.r(A)p.r(A)p.d(T)p.d(T)}|RNA2{r(U)p.r(U)p.r(A)p.r(G)p.r(A)p.r(A)p.r(A)p.r(U)p.r(U)p.r(G)p.r(U)p.r(U)p.r(A)p.r(A)p.r(A)p.r(G)p.r(C)p.r(A)p.r(G)p.d(G)p.d(C)}$$$RNA1{StrandType:ss}|RNA2{StrandType:as}$	89.7
RNA1{r(C)p.r(U)p.r(U)p.r(U)p.r(U)p.r(A)p.r(U)p.r(C)p.r(C)p.r(A)p.r(U)p.r(U)p.r(U)p.r(G)p.r(U)p.r(U)p.r(C)p.r(A)p.r(C)p.d(T)p.d(T)}|RNA2{r(G)p.r(U)p.r(G)p.r(A)p.r(A)p.r(C)p.r(A)p.r(A)p.r(A)p.r(U)p.r(G)p.r(G)p.r(A)p.r(U)p.r(A)p.r(A)p.r(A)p.r(A)p.r(G)p.d(A)p.d(A)}$$$RNA1{StrandType:ss}|RNA2{StrandType:as}$	27
